In patent publication US6525059B1, “Substituted pyrazoles as p38 kinase inhibitors” (G. D. Searle & Company, priority 1998, dated 2003):
Where two headings read alike, the source gives them in different places.

Assays:
[1] = system: TNF-α; test: LPS stimulation of TNF production by U937 cells; assay type: cell-based, human; details: for IC50 / inhibition at 1 µM: Homo sapiens; for inhibition at 1 µM: U-937, @ 1.0 uM, read-out: U937 Cell % inhib @ conc.
Protocol: Fifty million cells in 100 ml media were induced to terminal monocytic differentiation by 24 hour incubation with 20 ng/ml phorbol 12-myristate 13-acetate (Sigma). The cells were washed by centrifugation (200×g for 5 min) and resuspended in 100 ml fresh medium. After 24-48 hours, the cells were harvested, centrifuged, and resuspended in culture medium at 2 million cells/ml.
Compounds were prepared as 10 mM stock solutions in DMSO and diluted in culture medium to yield a final DMSO concentration of 0.1% in the cell assay. LPS (E coli, 100 ng/ml final concentration) was then added at a volume of 0.02 ml. After 4 hour incubation at 37° C., the amount of TNF-α released in the culture medium was quantitated by ELISA. Inhibitory potency is expressed as IC50 (μM).
In vitro whole cell assay for measuring the ability of the compounds to inhibit TNF production in human U937 cells stimulated with LPS are shown in the column identified as: […]

[2] = target: T1, human p38 kinase alpha (Homo sapiens, UniProt Q16539); test: p38 kinase in vitro assay, phosphorylation of biotinylated PHAS-I with gamma 32P-ATP; assay type: biochemical
T1 construct: The coding region of the human p38a cDNA was obtained by PCR-amplification from RNA isolated from the human monocyte cell line THP.1; GST (N); made in house; host or cells: E. coli DH10B
Protocol: The ability of compounds to inhibit human p38 kinase alpha was evaluated using two in vitro assay methods. In the first method activated human p38 kinase alpha phosphorylates a biotinylated substrate, PHAS-I (phosphorylated heat and acid stable protein-insulin inducible), in the presence of gamma ^32P-ATP (^32P-ATP). PHAS-I was biotinylated prior to the assay and provides a means of capturing the substrate which is phosphorylated during the assay. p38 Kinase was activated by MKK6. Compounds were tested in 10 fold serial dilutions over the range of 100 μM to 0.001 μM using 1% DMSO. Each concentration of inhibitor was tested in triplicate.
All reactions were carried out in 96 well polypropylene plates. Each reaction well contained 25 mM HEPES pH 7.5, 10 mM magnesium acetate and 50 μM unlabeled ATP. […] The reaction proceeded either for one hour or overnight at 30° C.
Following incubation, 20 μl of reaction mixture was transferred to a high capacity streptavidin coated filter plate (SAM-streptavidin-matrix, Promega) prewetted with phosphate buffered saline. […] Filter plates were air dried and 20 μl of scintillant was added. The plates were sealed and counted.

[3] = U-937, LPS-stimulated U937 cells, read-out: U937 Cell Assay IC50
[4] = p38α in vitro, PHAS-I assay procedure, read-out: p38^1 IC50
[5] = U-937, LPS-stimulated U937 cells, read-out: U937 IC50
[6] = read-out: P38 alpha kinase IC50

T1 sequence (Q16539 whole entry): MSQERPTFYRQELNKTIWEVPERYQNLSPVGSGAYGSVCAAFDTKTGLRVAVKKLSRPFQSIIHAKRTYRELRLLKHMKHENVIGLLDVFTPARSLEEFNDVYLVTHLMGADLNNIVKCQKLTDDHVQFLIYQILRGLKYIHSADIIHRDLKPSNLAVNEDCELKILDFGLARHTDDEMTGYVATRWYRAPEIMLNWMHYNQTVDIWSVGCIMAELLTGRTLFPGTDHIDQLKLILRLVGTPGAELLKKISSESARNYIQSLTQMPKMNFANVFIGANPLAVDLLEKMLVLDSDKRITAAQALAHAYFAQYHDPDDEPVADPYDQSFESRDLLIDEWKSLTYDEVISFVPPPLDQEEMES

| IC50 [2, 6] [nM] | SMILES | inhibition at 1 µM [1] [%] | further results |
| --- | --- | --- | --- |
|  | Cc1ccc(-c2[nH]nc(C)c2-c2ccncc2)cc1 [Example A-5] |  | IC50 [1, 3]: 274 nM |
|  | Cc1cccc(-c2n[nH]cc2-c2ccnc(C)c2)c1 [Example A-143, 2-methyl-4-[3-(3-methylphenyl)-1H-pyrazol-4-yl]pyridine] |  | IC50 ([2]; activated human p38 kinase alpha, PHAS-I substrate, 50 μM unlabeled ATP, read-out: p38 kinase IC50): < 100 nM; IC50 [1, 3]: 301 nM |
|  | CN(C)CCn1cc(-c2ccnc(NCc3ccc(F)cc3)c2)c(-c2ccc(F)cc2)n1 [Example A-274, 4-[1-[2-(dimethylamino)ethyl]-3-(4-fluorophenyl)-1H-pyrazol-4-yl]-N-[(4-fluorophenyl)methyl]-2-pyridinamine] |  | IC50 [2, 4]: < 100 nM; IC50 [1, 5]: 920 nM |
|  | CN(C)CCn1cc(-c2ccnc(CCc3ccc(F)cc3)c2)c(-c2ccc(F)cc2)n1 [Example A-275, 3-(4-fluorophenyl)-4-[2-[2-(4-fluorophenyl)ethyl]-4-pyridinyl]-N,N-dimethyl-1H-pyrazole-1-ethanamine] |  | IC50 [2, 4]: 10100 nM; IC50 [1, 5]: > 10000 nM |
|  | OCCn1ncc(-c2ccnc(NCc3ccc(F)cc3)c2)c1-c1ccc(F)cc1 [Example A-290, 5-(4-fluorophenyl)-4-[2-[[(4-fluorophenyl)methyl]amino]-4-pyridinyl]-1H-pyrazole-1-ethanol] |  | IC50 [1, 5]: 6020 nM |
|  | O=C(NCc1[nH]nc(-c2ccc(F)cc2)c1-c1ccncc1)c1cccs1 [Example B-0193] | 6 |  |
|  | O=C(NCc1[nH]nc(-c2ccc(F)cc2)c1-c1ccncc1)c1cccs1 [Example B-0208] |  | IC50 ([1]; U-937, TNF production, LPS-stimulated human U937 cells, read-out: U937 Cell IC50): > 1000 nM |
|  | O=S(=O)(NCc1[nH]nc(-c2ccc(F)cc2)c1-c1ccncc1)c1ccccc1Br [Example B-0234] | 68 |  |
|  | O=S(=O)(NCc1[nH]nc(-c2ccc(F)cc2)c1-c1ccncc1)c1ccc(C(F)(F)F)cc1 [Example B-0237] | 60 |  |
|  | Cc1ccccc1S(=O)(=O)NCc1[nH]nc(-c2ccc(F)cc2)c1-c1ccncc1 [Example B-0245] | 24 |  |
|  | Cc1noc(C)c1C(=O)NCc1[nH]nc(-c2ccc(F)cc2)c1-c1ccncc1 [Example B-0304] | 28 |  |
|  | C[C@@H](NC(=O)c1ccccn1)c1[nH]nc(-c2ccc(F)cc2)c1-c1ccncc1 [Example B-0379] | 24 |  |
|  | C[C@@H](NS(=O)(=O)c1ccccc1)c1[nH]nc(-c2ccc(F)cc2)c1-c1ccncc1 [Example B-0386] | 54 |  |
|  | C[C@@H](NS(=O)(=O)/C=C/c1ccccc1)c1[nH]nc(-c2ccc(F)cc2)c1-c1ccncc1 [Example B-0388] | 36 |  |
|  | C[C@@H](NC(=O)N(C)c1ccccc1)c1[nH]nc(-c2ccc(F)cc2)c1-c1ccncc1 [Example B-0409] | 30 |  |
|  | CCN(CC)C(=O)N[C@H](C)c1[nH]nc(-c2ccc(F)cc2)c1-c1ccncc1 [Example B-0420] | 49 |  |
|  | COc1ccc(NC(=O)N[C@H](C)c2[nH]nc(-c3ccc(F)cc3)c2-c2ccncc2)c(OC)c1 [Example B-0422] | 40 |  |
|  | C[C@@H](NS(=O)(=O)c1ccc(Br)cc1)c1[nH]nc(-c2ccc(F)cc2)c1-c1ccncc1 [Example B-0432] | 89 |  |
|  | C[C@@H](NS(=O)(=O)c1ccc(Cl)cc1)c1[nH]nc(-c2ccc(F)cc2)c1-c1ccncc1 [Example B-0433] | 92 |  |
|  | C[C@@H](NS(=O)(=O)c1ccc2ccccc2c1)c1[nH]nc(-c2ccc(F)cc2)c1-c1ccncc1 [Example B-0440] | 63 |  |
|  | C[C@@H](NS(=O)(=O)Cc1ccccc1[N+](=O)[O-])c1[nH]nc(-c2ccc(F)cc2)c1-c1ccncc1 [Example B-0442] | 91 |  |
|  | C[C@@H](NS(=O)(=O)c1cccc(Cl)c1Cl)c1[nH]nc(-c2ccc(F)cc2)c1-c1ccncc1 [Example B-0445] | 83 |  |
|  | C[C@@H](NS(=O)(=O)c1ccccc1Br)c1[nH]nc(-c2ccc(F)cc2)c1-c1ccncc1 [Example B-0454] | 80 |  |
|  | C[C@@H](NS(=O)(=O)c1cccc(Cl)c1)c1[nH]nc(-c2ccc(F)cc2)c1-c1ccncc1 [Example B-0462] | 97 |  |
|  | C[C@@H](NS(=O)(=O)c1cc(Cl)cc(Cl)c1)c1[nH]nc(-c2ccc(F)cc2)c1-c1ccncc1 [Example B-0464] | 91 |  |
|  | Cc1cccc(Cl)c1S(=O)(=O)N[C@H](C)c1[nH]nc(-c2ccc(F)cc2)c1-c1ccncc1 [Example B-0467] | 77 |  |
|  | Cc1ccc(C(=O)N[C@H](C)c2[nH]nc(-c3ccc(F)cc3)c2-c2ccncc2)cc1 [Example B-0494] |  | U937 Cell % inhib @ conc. ([1]; @ 1.0 uM): 30.0% @ 1.0 uM |

| IC50 [2, 6] [nM] | SMILES | inhibition at 1 µM [1] [%] | further results |
| --- | --- | --- | --- |
|  | C[C@@H](NC(=O)c1cccc(C#N)c1)c1[nH]nc(-c2ccc(F)cc2)c1-c1ccncc1 [Example B-0499] | 37 |  |
| 420 | Cc1cccc(C(=O)N[C@H](C)c2[nH]nc(-c3ccc(F)cc3)c2-c2ccncc2)c1 [Example B-0515] |  |  |
| 370 | C[C@@H](NC(=O)c1ccc(Cl)cc1Cl)c1[nH]nc(-c2ccc(F)cc2)c1-c1ccncc1 [Example B-0516] |  |  |
|  | C[C@@H](NC(=O)c1cccc(F)c1F)c1[nH]nc(-c2ccc(F)cc2)c1-c1ccncc1 [Example B-0518] | 64 |  |
|  | C[C@@H](NC(=O)c1ccc(F)cc1F)c1[nH]nc(-c2ccc(F)cc2)c1-c1ccncc1 [Example B-0524] | 77 |  |
| 160 | C[C@@H](NC(=O)c1cccc(Cl)c1)c1[nH]nc(-c2ccc(F)cc2)c1-c1ccncc1 [Example B-0525] |  |  |
|  | Cc1noc(C)c1C(=O)N[C@H](C)c1[nH]nc(-c2ccc(F)cc2)c1-c1ccncc1 [Example B-0529] | 73 |  |
| 460 | CC(=O)NC(C)c1[nH]nc(-c2ccc(F)cc2)c1-c1ccncc1 (stereo not drawn) [Example B-0536] |  |  |
| 1080 | Cc1ccc(C(=O)NC(C)c2[nH]nc(-c3ccc(F)cc3)c2-c2ccncc2)cc1 (stereo not drawn) [Example B-0551] |  |  |
| 1370 | COc1cccc(C(=O)NC(C)c2[nH]nc(-c3ccc(F)cc3)c2-c2ccncc2)c1 (stereo not drawn) [Example B-0557] |  |  |
| 250 | CC(NS(=O)(=O)c1ccccc1C#N)c1[nH]nc(-c2ccc(F)cc2)c1-c1ccncc1 (stereo not drawn) [Example B-0627] |  |  |
| 1250 | COc1ccc(Cl)cc1S(=O)(=O)NC(C)c1[nH]nc(-c2ccc(F)cc2)c1-c1ccncc1 (stereo not drawn) [Example B-0655] |  |  |
| 1140 | CC(NS(=O)(=O)c1ccc(-c2ccccc2)cc1)c1[nH]nc(-c2ccc(F)cc2)c1-c1ccncc1 (stereo not drawn) [Example B-0658] |  |  |
| 6590 | CC(NC(=O)c1cccc(C(F)(F)F)c1)c1[nH]nc(-c2ccc(F)cc2)c1-c1ccncc1 (stereo not drawn) [Example B-0672] |  |  |
| 62 | CC(NC(=O)c1cc(F)cc(F)c1)c1[nH]nc(-c2ccc(F)cc2)c1-c1ccncc1 (stereo not drawn) [Example B-0679] |  |  |
| 660 | CC(NC(=O)c1ccc(F)cc1C(F)(F)F)c1[nH]nc(-c2ccc(F)cc2)c1-c1ccncc1 (stereo not drawn) [Example B-0688] |  |  |
| 3200 | CCCS(=O)(=O)NC(Cc1ccccc1)c1[nH]nc(-c2ccc(F)cc2)c1-c1ccncc1 (stereo not drawn) [Example B-0715] |  |  |
| 4300 | CCS(=O)(=O)NC(Cc1ccccc1)c1[nH]nc(-c2ccc(F)cc2)c1-c1ccncc1 (stereo not drawn) [Example B-0717] |  |  |
| 60 | NC(=O)NC(Cc1ccccc1)c1[nH]nc(-c2ccc(F)cc2)c1-c1ccncc1 (stereo not drawn) [Example B-0724] |  |  |
| 15 | CS(=O)(=O)NC(Cc1ccccc1)c1[nH]nc(-c2ccc(F)cc2)c1-c1ccncc1 (stereo not drawn) [Example B-0763] |  |  |
| 12700 | NC(=O)NC(Cc1ccccc1)c1[nH]nc(-c2ccc(F)cc2)c1-c1ccncc1 (stereo not drawn) [Example B-0769] |  |  |
|  | Cc1noc(C)c1S(=O)(=O)NCCCc1[nH]nc(-c2ccc(F)cc2)c1-c1ccncc1 [Example B-1281] |  | U937 Cell % inhib @ conc. (uM) ([1]; @ 1.0 uM, TNF production, LPS-stimulated U937 cells): 8.0% @ 1.0 uM |
| 700 | O=C(NCCCc1[nH]nc(-c2ccc(F)cc2)c1-c1ccncc1)c1ccccc1Br [Example B-1355] |  |  |
| 550 | N#Cc1cccc(C(=O)N2CCC(c3[nH]nc(-c4ccc(F)cc4)c3-c3ccncc3)CC2)c1 [Example B-1396] |  |  |
| 920 | O=C(c1ccccc1Br)N1CCC(c2[nH]nc(-c3ccc(F)cc3)c2-c2ccncc2)CC1 [Example B-1398] |  |  |
| 6000 | O=C(O)CCc1[nH]nc(-c2ccc(F)cc2)c1-c1ccncc1 [Example C-135, 4-(4-(4-PYRIDYL)-3-(4-FLUOROPHENYL)PYRAZOLYL)PROPIONIC ACID] |  |  |

| SMILES | IC50 [2, 6] [nM] | inhibition at 1 µM [1] [%] | further results |
| --- | --- | --- | --- |
| Clc1ccc(-c2n[nH]c(C3CCNCC3)c2-c2ccncn2)cc1 [Example C-136] | 32 |  |  |
